Source: article PMC11054271, “ABCG2 Transports the Flukicide Nitroxynil and Affects Its Biodistribution and Secretion into Milk” (Pharmaceutics, 2024)
Where two headings read alike, the source gives them in different places.

Tests used:
[1] = set-up: method as in PMID 21657788; conditions: cited from earlier work
[2] = system: T1, murine Abcg2; assay: Tissue distribution in wild-type and Abcg2−/− male mice; type: in vivo; conditions: FVB/N, mouse, sc, wild-type male mice, 10 mg/kg s.c.
T1 construct: from tissue; host or cells: whole animal: wild-type vs Abcg2-/- mice, >99% FVB/N background
Description: (§1) All in vivo experiments were carried out using wild-type and Abcg2^−/− mice aged between 8 and 17 weeks, all of >99% FVB/N genetic background, generated and gently supplied by A. H. Schinkel (Netherlands Cancer Institute). Mice were housed and handled complying with institutional and ARRIVE guidelines and European legislation (EU Directive 2010/63/EU for animal experiments). Additionally, experimental procedures were approved by the Animal Care and Use Committee of the University of León and the Junta de Castilla y León (ULE_011_2019).
(§2) For pharmacokinetic experiments, a single dose of nitroxynil at 10 mg/kg was administered subcutaneously to wild-type and Abcg2^−/− male mice (n = 4–5, for each time point). Distomicide® (250 mg/mL) commercial solution was dissolved in saline (sodium chloride 0.9%) and dosed at 200 μL per 30 g body weight. Blood samples were collected at different time points (0.5, 3, 4.5, 6, 24, 48 and 96 h) and heparinized blood samples were centrifugated for 15 min at 3000× g. Organs were also collected at 24 and 96 h after euthanasia. Linear trapezoidal rule was used to calculate the area under the plasma concentration–time curve (AUC) parameter.
(§3) Plasma, milk and tissue samples from each animal were individually processed and analyzed without pooling, while samples from transport assays were not processed. Tissue samples were homogenized in a mixture of 50% water/50% methanol HCl 0.5% (v/v); 1 mL solution per 0.1 g tissue. The entire amount of collected milk (74.7–295.1 mg) and 100 μL plasma and tissue homogenates were processed. To each sample, 10 μL of a nitrofurantoin solution (10 μg/mL for plasma and milk and 2 μg/mL for homogenized tissues) was added as an internal standard and 150 μL acetonitrile was used to precipitate the proteins. The mixture was vortexed horizontally for 15 min and centrifugated at 10,000× g for 5 min at 4 °C. Supernatant was transferred to a new tube and dried at 40 °C under N2 stream. Samples were reconstituted in 100 μL of mobile phase and 50 μL was injected into HPLC. Standards were subjected to the same procedures as samples.
(§4) Waters 2695 separation module and Waters 2998 UV photodiode array detector set at 270 nm were used for samples analysis. Chromatographic conditions for nitroxynil detection were based on previously described methods, with minor modifications. Chromatographic separation was achieved on a reverse-phase column (Synergy 4 μm Hydro–RP 80 Å, 250 × 4.60 mm; Phenomenex®, Torrance, CA, USA) using an isocratic binary mobile phase consisting of 25 mM potassium phosphate monobasic (KH2PO4), pH 4: acetonitrile (70:30 for culture samples and 80:20 for animal samples) at a flow rate of 1 mL/min. Autosampler and column temperature were 4 °C and 40 °C, respectively. Limit of detection (LOD) and quantification (LOQ) were calculated as previously described. For cell culture samples, LOD and LOQ were 0.003 μg/mL and 0.007 μg/mL, respectively. For in vivo samples, LOD was in the range of 0.01–0.07 μg/mL and LOQ in the range of 0.03–0.15 μg/mL.

[3] = system: murine Abcg2; assay: as above; type: in vivo; conditions: 10 mg/kg s.c.
Description: as §1, §2, §3, §4

N#Cc1cc(I)c(O)c([N+](=O)[O-])c1 [nitroxynil]
Time after treatment at which residues have been found in milk [1]: up to 58 days | Kp at 96 h ([2]; kidney and plasma, 96 h, read-out: Tissue/plasma ratio, kidney): 0.06 ± 0.01 | concentration at 24 h ([2]; kidney, read-out: Tissue concentration, kidney): 5900 ± 1200 ng/g | concentration at 96 h ([2]; kidney, 96 h): 900 ± 100 ng/g | concentration at 24 h ([2]; liver, read-out: Tissue concentration, liver): 900 ± 300 ng/g | concentration at 24 h ([2]; small intestine, read-out: Levels of nitroxynil in small intestine): 1100 ± 200 ng/mL | concentration at 24 h ([2]; small intestine, read-out: Tissue concentration, small intestine): 1100 ± 200 ng/g | concentration at 24 h ([2]; spleen, read-out: Accumulation in spleen): 1400 ± 300 ng/mL | concentration at 24 h ([2]; spleen, read-out: Tissue concentration, spleen): 1400 ± 300 ng/g | concentration at 24 h ([2]; testis, read-out: Concentration in testis): 2600 ± 200 ng/mL | concentration at 24 h ([2]; testis, read-out: Tissue concentration, testis): 2600 ± 200 ng/g | Tissue concentration, spleen ([3]; Abcg2−/− male mice, 96 h): <LOQ | Kp at 96 h ([3]; FVB/N, mouse, kidney and plasma, sc, Abcg2−/− male mice, 96 h, read-out: Tissue/plasma ratio, kidney): 0.03 ± 0.01 | concentration at 24 h ([3]; FVB/N, mouse, kidney, sc, Abcg2−/− male mice, read-out: Tissue concentration, kidney): 8200 ± 1800 ng/g | concentration at 96 h ([3]; FVB/N, mouse, kidney, sc, Abcg2−/− male mice, 96 h, read-out: Tissue concentration, kidney): 3500 ± 300 ng/g | concentration at 24 h ([3]; FVB/N, mouse, liver, sc, Abcg2−/− male mice, read-out: Tissue concentration, liver): 1300 ± 300 ng/g | concentration at 96 h ([3]; FVB/N, mouse, liver, sc, Abcg2−/− male mice, 96 h, read-out: Tissue concentration, liver): 700 ± 200 ng/g | concentration at 24 h ([3]; FVB/N, mouse, small intestine, sc, Abcg2−/− male mice, read-out: Levels of nitroxynil in small intestine): 1600 ± 300 ng/mL | concentration at 24 h ([3]; FVB/N, mouse, small intestine, sc, Abcg2−/− male mice, read-out: Tissue concentration, small intestine): 1600 ± 300 ng/g | concentration at 96 h ([3]; FVB/N, mouse, small intestine, sc, Abcg2−/− male mice, 96 h, read-out: Tissue concentration, small intestine): 500 ± 100 ng/g | concentration at 24 h ([3]; FVB/N, mouse, spleen, sc, Abcg2−/− male mice, read-out: Accumulation in spleen): 2500 ± 300 ng/mL | concentration at 24 h ([3]; FVB/N, mouse, spleen, sc, Abcg2−/− male mice, read-out: Tissue concentration, spleen): 2500 ± 300 ng/g | concentration at 24 h ([3]; FVB/N, mouse, testis, sc, Abcg2−/− male mice, read-out: Concentration in testis): 4200 ± 800 ng/mL | concentration at 24 h ([3]; FVB/N, mouse, testis, sc, Abcg2−/− male mice, read-out: Tissue concentration, testis): 4200 ± 800 ng/g | concentration at 96 h ([3]; FVB/N, mouse, testis, sc, Abcg2−/− male mice, 96 h, read-out: Tissue concentration, testis): 1100 ± 200 ng/g | Brain levels ([3]; wild-type and Abcg2−/− male mice, 24 and 96 h, almost all samples): below LOQ
